# Measured values published in PubChem BioAssay AID179 (DTP/NCI, 2004).
# Active and inactive are the calls of the source.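 How the source made its calls: active means compounds giving half or more protection of infected cells from virus-caused growth loss, again on retest; inactive means the rest.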
# System: CEM cells HIV-1 protection, formazan growth assay
# Assay: NCI AIDS Antiviral Assay
# Conditions: for IC50: measured here: growth of uninfected CEM cells
# How it was run: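 CEM (human) cells, HIV-1 infected vs uninfected, 5-point dosing, formazan growth read-out. Retest threshold 50% protection.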
Compound,EC50,IC50,outcome
CC(=O)OCC1OC(OC2=C(c3ccccc3)C(=O)C(OC3OC(COC(C)=O)C(OC(C)=O)C(OC(C)=O)C3OC(C)=O)=C(c3ccccc3)C2=O)C(OC(C)=O)C(OC(C)=O)C1OC(C)=O (configuration not stated),> 33.9 µM,5.89 µM,
COc1c(OCc2ccccc2)c(OCc2ccccc2)cc(CO)c1-c1c(CO)cc(OCc2ccccc2)c(OCc2ccccc2)c1OC,> 2.88 µM,> 2.88 µM,
CC(CCC=C(c1cc(Cl)c(O)c(C(=O)O)c1)c1cc(Cl)c(O)c(C(=O)O)c1)C1CCC2[C@@H]3CC[C@@H]4CC(F)(F)CC[C@]4(C)C3CC[C@]12C (some centres not stated),> 170 µM,38 µM,
COC1/C=C/OC2(C)Oc3c(C)c(O)c4c(O)c(c(/C=N/NC5C6CC7CC(C6)CC5C7)c(O)c4c3C2=O)NC(=O)/C(C)=C/C=C/C(C)C(O)C(C)C(O)C(C)C(OC(C)=O)C1C (configuration not stated),> 200 µM,9.12 µM,
CC1=C(/C=C/C(C)=C/C=C/C(C)=C/C=O)C(C)(C)CCC1,,,inactive
COC(=O)Nc1nc2ccccc2c(=O)[nH]1,> 200 µM,> 200 µM,
COC1/C=C/OC2(C)Oc3c(C)c(O)c4c(O)c(c(/C=N/N5CC(C)(C)N(Cc6ccccc6)CC5(C)C)c(O)c4c3C2=O)NC(=O)C(C)=C/C=C/C(C)C(O)C(C)C(O)C(C)C(OC(C)=O)C1C (configuration not stated),> 27.5 µM,3.31 µM,
COc1ccc(NC(=O)CC(=O)N/N=C(\C)c2cc3ccccc3oc2=O)cc1,> 200 µM,102 µM,
CC1=CC(N2C(=O)C(C)=CC2O)NC1=O (configuration not stated),,,inactive
CSCCC(N)C(=O)NCCNc1ccc(NCCNC(=O)C(N)CCSC)c2c1C(=O)c1ccccc1C2=O (configuration not stated),> 151 µM,0.219 µM,
CC(SC(=O)Nc1ccc(N=Nc2ccccc2)cc1)C(=O)O (configuration not stated),,,inactive
OC1(CCc2ccccc2)COC(C(F)(F)F)(C(F)(F)F)C1 (configuration not stated),> 200 µM,> 200 µM,
O=C(Oc1c(Br)cc(Br)cc1C(=O)Oc1ccccc1)C(=O)Oc1c(Br)cc(Br)cc1C(=O)Oc1ccccc1,> 200 µM,30.9 µM,
S=c1nc(-c2ccnc(-c3nc(=S)[nH][nH]3)c2)[nH][nH]1,> 25.7 µM,> 25.7 µM,
CCCc1c(O)c2ccccc2[nH]c1=O,> 200 µM,> 200 µM,
CO[C@@H]1C2OC(C)(C)OC2O[C@@H]1C1OC[C@H]2O[C@@H](n3ccc(=O)[nH]c3=O)C(O)[C@H]2N1O (some centres not stated),> 200 µM,148 µM,
O=C1CSC(/C(=N/Nc2ccccc2)c2nc3ccccc3[nH]2)=N1,> 15.5 µM,> 15.5 µM,
CC(C)C(=O)OCC1OC(n2c(Br)nc3c(=O)[nH]c(N)nc32)C(OC(=O)C(C)C)C1OC(=O)C(C)C (configuration not stated),> 200 µM,91.2 µM,
O=[N+]([O-])c1ccc(C2CC3(c4ccccc4)ON=C(c4ccccc4)N3c3ccccc3S2)cc1 (configuration not stated),> 200 µM,102 µM,
Cc1ccccc1[B-]12OCC[N+]1(CNC(=O)C1=C(O)C3(O)C(=O)C4=C(O)c5c(O)cccc5C(C)(O)C4CC3C(N(C)C)C1=O)CCO2 (configuration not stated),> 53.7 µM,> 53.7 µM,
C[CH2][Sn]([CH2]C)([O]C(=O)C(OC(C)=O)c1ccccc1)[O]C(=O)C(OC(C)=O)c1ccccc1 (configuration not stated),> 229 µM,2.69 µM,

Compound,EC50,IC50,outcome
CCOC(=O)CN1C(=O)C(=O)N(c2ccc(OC)c3ccccc23)C1=O,> 200 µM,> 200 µM,
C=CCN(CC=C)Cn1c(=S)sc2ccccc21,> 200 µM,141 µM,
CCCCCCCCCOC(=S)NCCCCC,,,inactive
COC(=O)[C@@H]1CO[C@H](C(C)(C)C)N1C(=O)N1C=CC(=O)C[C@H]1C,> 200 µM,> 200 µM,
CNC(=O)CCNC(=O)CCC(=O)OC,> 200 µM,> 200 µM,
NC(=O)NNCc1c(-c2ccccc2)no[n+]1[O-],> 200 µM,> 200 µM,
COC(=O)CC(SCCO)SCCO,> 200 µM,> 200 µM,
Cc1cc2ncc3c(=O)n(NS(=O)(=O)c4ccc(N)cc4)ccc3n2n1,> 200 µM,> 200 µM,
C=C1C(=O)C23OC2C1CCC(=O)C1(C)CC[C@H](OC(C)=O)C(C)(C)[C@H]1CC3O (some centres not stated),> 200 µM,1.2 µM,
O=c1cnn(C2OC(CO)C(O)C2O)c(=S)[nH]1 (configuration not stated),> 2 µM,0.182 µM,
Cc1ccc(-c2nc3ccccc3c(=O)n2NCC2(O)OCC(O)C(O)C2O)cc1 (configuration not stated),,,inactive
Cc1ccsc1C(=S)Nc1ccc(Cl)c(C(=O)OC(C(C)C)C(C)C)c1,0.309 µM,21.4 µM,
N.N.N.N.N.O=[N+]([O-])[O-].[Co+3].[O-][Cl+3]([O-])([O-])[O-],,,inactive
Cn1cc(NC(=O)c2cc(NC(=O)CCCCCCCCC(=O)Nc3cc(C(=O)Nc4cc(C(=O)NCCC(N)N)n(C)c4)n(C)c3)cn2C)cc1C(=O)NCCC(=N)N,> 28.8 µM,12.6 µM,
CSc1nnc2n(C)c3c(=O)n(C)c(=O)n(C)c3n12,> 200 µM,> 200 µM,
CCC12CCCN(CCBr)C1c1c(n(C)c3ccccc13)C(C(=O)OC)C2 (configuration not stated),> 27.5 µM,13.5 µM,
CC(=O)Nc1ccc(NS(=O)(=O)c2ccc3nc(C)n(NS(=O)(=O)c4ccc(NC(C)=O)cc4)c(=O)c3c2)cc1,> 200 µM,> 200 µM,
CC1CN1c1c(C(=O)/C=C/c2ccc(Cl)cc2)c(-c2ccccc2)nn(C)c1=O (configuration not stated),> 8.91 µM,> 8.91 µM,
C=C1C(=O)O[C@H]2C3OC3(C)CC/C=C(/C(=O)OC)[C@@H](OC(C)=O)[C@H](OC(=O)C3(C)OC3C)[C@H]12 (some centres not stated),,,inactive
CC(NC1CC1)c1ccccc1 (configuration not stated),,,inactive
NC1=N[C@H]2CS[C@@H](CCCCC(=O)ON3C(=O)CCC3=O)[C@H]2N1,> 589 µM,> 589 µM,

Compound,EC50,IC50,outcome
O=C(O)CCC(=O)c1ccc2c(c1)C(C(=O)O)CC2 (configuration not stated),> 200 µM,> 200 µM,
C=C1CCC2C(C)(CO)C(O)CCC2(C)C1CC(O)/C(=C/CO)C(=O)O (configuration not stated),,,inactive
O=C(/C(=C/c1ccc(Cl)cc1)c1ccccc1)c1ccccc1,> 8.51 µM,> 8.51 µM,
O=c1cc(-c2ccccc2)oc2ccc(Oc3nnnn3-c3ccccc3)cc12,> 200 µM,> 200 µM,
O=C(CCc1n[nH]c(=S)o1)Nc1cc(Cl)c(Cl)cc1Cl,,,inactive
COC(=O)c1ccc(SSc2ccc(C(=O)OC)cc2[N+](=O)[O-])c([N+](=O)[O-])c1,,,inactive
CC(C)CCC[C@@H](C)C1CCC2[C@@H]3CCC4C[C@@H](CCC=C(c5cc(Cl)c(O)c(C(=O)O)c5)c5cc(Cl)c(O)c(C(=O)O)c5)CC[C@]4(C)C3CC[C@@]21C (some centres not stated),32.4 µM,> 100 µM,
O=c1c2cccnc2nc2ccc3c[nH][nH]c3c12,> 200 µM,87.1 µM,
C[Si]12OCCCN(CCO1)CCO2,,,inactive
Clc1ccc2cccc3c2c1C1OC3c2ccccc21 (configuration not stated),,,inactive
C=CCn1c(=N)/c(=C(\N)O)s/c1=C1/SC(=S)N(c2ccc(C)cc2)C1=O,> 6.76 µM,> 6.76 µM,
CC(=O)/C(=C\c1ccco1)C(=O)Nc1ccccc1,> 74.1 µM,> 74.1 µM,
O=C1NC2(CCCCC2)C(=O)N1CCN(CCCl)CCCl,> 372 µM,269 µM,
COc1ccc2oc(=N)c(C(=O)NCc3ccccc3)cc2c1,> 200 µM,17.8 µM,
CCCCNC(=S)/C(C#N)=C1\Nc2ccccc2O1,> 200 µM,32.4 µM,
CC1=CO[C@@H]2O[C@@]3(C)CC[C@H]4[C@H](C)CC[C@@H]1[C@@]24O3,> 200 µM,> 200 µM,
C#CCNC(=O)ON1C(=O)CCC1=O,> 1260 µM,> 1260 µM,
O=C1C2CN(Cc3ccccc3)CC1CN(CC1CC1)C2,> 240 µM,> 240 µM,
O=C(c1ccc(Cl)cc1)c1ccc(OCCCOc2ccc(C(=O)c3ccc(Cl)cc3)cc2)cc1,> 20 µM,> 20 µM,
COc1ccccc1C1C2=C(COC2=O)OC(C)(C)Oc2cc3c(cc21)OCO3 (configuration not stated),,,inactive
CC1=N/C(=C\c2ccc(C)cc2)C(=O)O1,> 129 µM,> 129 µM,inactive

Compound,EC50,IC50,outcome
COc1ccc(C2(C3c4cc(OC)c(OC)cc4CCN3C)SCCCS2)cc1O (configuration not stated),> 200 µM,151 µM,
NC(=O)CCNC(=O)c1ccc(NC(=O)c2ccccc2SC(=O)CCCC[n+]2ccccc2)cc1,18.6 µM,45.7 µM,
COC(=O)CC(C(C(=O)OCc1ccccc1)C(C)O)N1C(=O)OC(c2ccccc2)C1c1ccccc1 (configuration not stated),> 251 µM,> 251 µM,
CC(C)CC(=O)NC(NC(C)C)(C(F)(F)F)C(F)(F)F,> 200 µM,> 200 µM,
O=C(C[n+]1ccc2ccccc2c1)c1ccc(O)c(O)c1,,,inactive
CC(=O)Nc1cc2cc(N=CN(C)C)ccc2oc1=O,> 263 µM,148 µM,
CC(=O)OCC1OC(Nc2[nH]c(=O)n(C)c(=O)c2-c2csc(N)n2)C(OC(C)=O)C(OC(C)=O)C1OC(C)=O (configuration not stated),,,inactive
Cc1cn(COCCOS(C)(=O)=O)c(=O)[nH]c1=O,> 200 µM,> 200 µM,
COc1ccc(SS(=O)(=O)c2ccc(OC)cc2)cc1,> 56.2 µM,5.25 µM,
CC(C)COP(C)(=O)C(N)(C(F)(F)F)C(F)(F)F (configuration not stated),> 200 µM,> 200 µM,
NC(N)=NS(=O)(=O)c1ccc(NCc2c3ccccc3nc3ccccc23)cc1,> 2 µM,0.195 µM,
CC(=O)OCC1=C2C(OC(=O)C(C)C)CC3(COC(C)=O)OC3/C=C\C3(C)OC3C2OC1=O (configuration not stated),> 200 µM,75.9 µM,
COC(=O)c1ncc2c(=O)[nH]c3ccccc3c2c1C(=O)OC,> 16.6 µM,> 16.6 µM,
CN1CCCC(CNC2C3CC4CC(C3)CC2C4)C1 (configuration not stated),> 138 µM,> 138 µM,
CCCN(CCC)/N=C/c1c2c(O)c3c(O)c(C)c4c(c3c1O)C(=O)C(C)(O/C=C/C(OC)C(C)C(OC(C)=O)C(C)C(O)C(C)C(O)C(C)/C=C/C=C(C)C(=O)N2)O4 (configuration not stated),> 200 µM,3.47 µM,
CCCCCC1=CC2C(=O)NC(=O)NC12 (configuration not stated),> 47.9 µM,> 47.9 µM,
COC(=O)/C=C/C1CC(CCCOc2ccccc2)OC(c2ccccc2)O1 (configuration not stated),> 66.1 µM,> 66.1 µM,
Cn1c2ccccc2c2nnc(N/N=C/c3cccs3)nc21,> 200 µM,> 200 µM,
